Reference: BindingDB's records for doi:10.1007/s00044-011-9882-z (n/a, 2012)

Target: Transcription factor Sp1 (Homo sapiens, UniProt P08047)
Assay: Inhibition of Sp1 (unknown origin) by luciferase reporter gene assay

Sequence of Transcription factor Sp1 (P08047 whole entry): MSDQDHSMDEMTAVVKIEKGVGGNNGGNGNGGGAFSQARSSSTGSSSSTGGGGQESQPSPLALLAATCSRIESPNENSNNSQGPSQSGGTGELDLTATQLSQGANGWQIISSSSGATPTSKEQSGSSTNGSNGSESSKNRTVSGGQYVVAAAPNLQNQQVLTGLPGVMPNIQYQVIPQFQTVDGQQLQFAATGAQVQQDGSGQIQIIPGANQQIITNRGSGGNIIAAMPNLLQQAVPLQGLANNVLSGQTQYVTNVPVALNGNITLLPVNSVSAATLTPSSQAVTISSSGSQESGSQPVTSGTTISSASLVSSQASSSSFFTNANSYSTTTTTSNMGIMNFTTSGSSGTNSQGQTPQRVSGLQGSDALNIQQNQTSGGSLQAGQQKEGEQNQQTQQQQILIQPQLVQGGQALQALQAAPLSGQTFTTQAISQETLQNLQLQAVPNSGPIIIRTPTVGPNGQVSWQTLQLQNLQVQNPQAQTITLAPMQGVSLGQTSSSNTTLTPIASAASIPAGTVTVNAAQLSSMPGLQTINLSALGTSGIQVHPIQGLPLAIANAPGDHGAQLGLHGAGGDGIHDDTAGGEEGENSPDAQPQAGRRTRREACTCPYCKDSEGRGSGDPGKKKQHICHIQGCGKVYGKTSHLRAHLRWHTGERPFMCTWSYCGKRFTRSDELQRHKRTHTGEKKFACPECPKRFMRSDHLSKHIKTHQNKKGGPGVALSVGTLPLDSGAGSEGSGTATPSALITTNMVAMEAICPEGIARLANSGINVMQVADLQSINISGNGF

Row | IC50 [µM] | SMILES
1 | 57.7 | O=C(N/N=C/c1ccccc1)c1ccc(F)cc1
2 | 30.2 | C=C1C(=O)O[C@H]2[C@H]1CC/C(C)=C/CC[C@@]1(C)O[C@@H]21 [PARTHENOLIDE]
